Results reported in patent publication US7608242B2, “Peptide-chelate conjugates” (GE Healthcare Limited, priority 2001, dated 2009).
Ends that are not written are not given here. Peptide text beside a SMILES is read from it. * marks the point of attachment. X1 = CCOC(C)SCC(=O)NC(CCCC(=O)*)C(=O)NCC(=O)NCC(=O)O

How the values were obtained:
[1] = target: T1, ST receptor (rat intestinal membrane) (Rattus norvegicus, UniProt P23897); test: Competition binding assay against [125I]ST1-17
T1 construct: in 96 well plates containing ca. 1 μg rat intestinal membrane; from tissue; host or cells: rat intestinal membrane
T1 sequence (P23897 23-1072): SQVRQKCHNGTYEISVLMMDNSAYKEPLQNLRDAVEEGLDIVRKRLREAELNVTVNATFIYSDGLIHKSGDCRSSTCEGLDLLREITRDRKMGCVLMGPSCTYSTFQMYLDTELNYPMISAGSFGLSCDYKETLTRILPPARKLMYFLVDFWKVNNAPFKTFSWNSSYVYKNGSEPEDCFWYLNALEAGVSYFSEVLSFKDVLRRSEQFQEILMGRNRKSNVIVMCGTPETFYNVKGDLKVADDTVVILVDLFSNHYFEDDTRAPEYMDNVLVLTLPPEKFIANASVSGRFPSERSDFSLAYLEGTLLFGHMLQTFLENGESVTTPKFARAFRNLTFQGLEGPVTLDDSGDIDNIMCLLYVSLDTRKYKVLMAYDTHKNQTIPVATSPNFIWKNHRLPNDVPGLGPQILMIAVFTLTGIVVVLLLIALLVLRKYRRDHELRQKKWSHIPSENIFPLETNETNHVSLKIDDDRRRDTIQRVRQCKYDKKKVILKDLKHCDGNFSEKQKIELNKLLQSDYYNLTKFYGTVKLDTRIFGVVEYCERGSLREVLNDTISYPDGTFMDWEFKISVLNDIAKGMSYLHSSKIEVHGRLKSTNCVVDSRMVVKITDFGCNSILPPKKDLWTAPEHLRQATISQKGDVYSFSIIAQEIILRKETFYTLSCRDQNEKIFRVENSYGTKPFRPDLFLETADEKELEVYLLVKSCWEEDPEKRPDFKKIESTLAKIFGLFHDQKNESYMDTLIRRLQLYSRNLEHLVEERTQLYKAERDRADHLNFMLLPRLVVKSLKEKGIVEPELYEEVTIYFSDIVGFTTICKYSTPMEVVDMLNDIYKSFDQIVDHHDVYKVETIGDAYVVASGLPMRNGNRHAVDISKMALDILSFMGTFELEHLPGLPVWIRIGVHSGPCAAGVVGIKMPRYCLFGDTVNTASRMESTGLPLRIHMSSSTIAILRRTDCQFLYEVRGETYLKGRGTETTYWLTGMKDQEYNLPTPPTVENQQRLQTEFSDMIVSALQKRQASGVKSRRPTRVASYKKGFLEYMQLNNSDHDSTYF
Description: Compounds were assessed for their potency by radioligand binding assay to determine inhibition constant (Ki) as a measure of potency of binding. Methods are described elsewhere, but briefly, [^125I]ST1-17 was competed with cold ST compounds (0.0001-50 μM) in 96 well plates containing ca. 1 μg rat intestinal membrane and incubated 1 hr, 37° C. Samples were filtered (GF/B filters, Whatman) to retrieve bound radiolabelled peptide and counted to determine % Bound/Free.
Potency of compounds was determined by inhibition constant (Ki) for their ability to compete with radioligand, [^125I]ST1-17.

[2] = system: T84 tumours subcutaneously; test: Imaging in the subcutaneous tumour model (planar gamma camera); type: in vivo, mouse; conditions: HPLC purified, 20 MBq per animal
Description: Tumour to liver ratios were; 1.1 at 15 minutes, 2 at 60 minutes and 4 at 120 minutes.
Tumours were grown as in Example 17. Animals were monitored for tumour growth for 8 to 10 weeks, until tumours were 0.5-1 cm in size. After this time, animals were injected with test article (0.1 ml, 20 MBq/ml or 200 MBq/ml) as an intravenous bolus via the tail vein. At various times p.i. animals were euthanased and whole body planar images acquired between 5 minutes and 24 hours p.i. using a gamma camera (Park Medical Isocam-1). Image acquisition times were typically 15-30 min or 150-250K counts (whole body, LEUHR collimator).

T84 liver tumours = test: Imaging in liver metastases model; type: in vivo, rat; conditions: image of Example 21 (FIG. 8)
Description: The image is a whole body image with background counts removed and kidneys masked. Image tumour:liver ratio was typically 2.5.
The liver metastases model was used in both mice and rats. As for the subcutaneous tumour model except in establishing tumours, cells were injected via the spleen and allowed to transfer to the liver via the circulation. Two minutes after injection of cells, a splenectomy was performed. Animals were allowed to generate tumours over 6-8 weeks.
Tumours were grown in animal as described in Example 20. Animals were monitored for tumour growth for 8 to 10 weeks, until tumours were 0.5-1 cm in size. After this time, animals were injected with test article (0.1 ml, 200 MBq/ml) as an intravenous bolus via the tail vein. At various times p.i. animals were euthanased and whole body planar images acquired between 5 minutes and 24 hours p.i. using a gamma camera (Park Medical Isocam-1). Image acquisition times were typically 15-30 min or 150-250K counts (whole body, LEUHR collimator). […] The image has the kidneys masked to improve the resolution of the imaged metastases.

[3] = system: sub-cutaneous T84 tumours (T84 human colon carcinoma cells); test: Biodistribution in a subcutaneous tumour model; type: in vivo, mouse; conditions: 60 min p.i.
Description: The sub-cutaneous model was used as an appropriate initial in vivo screen. Briefly, mice (female nude CD-1, ca. 20 g; Charles River) were injected sub-cutaneously into the neck with T84 human colon carcinoma cells (0.1 ml, 1×10^8 cells/ml in medium) through a 23-gauge needle and allowed to develop tumours over 6-8 weeks.
At least three animals per test point were studied. Results are expressed as % injected dose per gram (% ID/g) of tissue.
Compounds were screened for their uptake into sub-cutaneous T84 tumours in the mouse (Table IV). This model allows assessment of the imageability of CA1-ST5-18 by allowing comparison between tumour and background tissue uptake.

[4] = target: T1, ST receptor (rat intestinal membrane); test: Radioactive binding assay of HPLC purified radiolabelled compounds; conditions: ca. 0.05 nM radiolabelled compound, 6 μg rat intestinal membrane, one hour
Description: To determine whether radiolabelling affected the binding of the compound, labelled compounds were tested for their ability to bind the receptor. Briefly HPLC purified radiolabelled compounds (ca. 0.05 nM) were incubated with 6 μg/150 μl final volume of rat intestinal membrane (one hour), in the presence and absence of competing peptide (50 μM ST5-18). Samples were filtered (GF/B filters, Whatman) to retrieve bound radiolabelled peptide and counted to determine % Bound/Free. Non-specific binding accounted for less than 1% in all cases.
In order to ensure that potency was maintained post-labelling, an assay measuring binding of labelled compounds was developed.

[5] = system: sub-cutaneous T84 tumours; test: Uptake of labelled conjugate and negative control into CRC tumours; type: in vivo, mouse; conditions: CD-1 nude mice bearing s.c. T84 tumours
[6] = Mean Ki value (nM), competition with [125I]ST1-17, ca. 1 μg rat intestinal membrane, 1 hr, 37° C., means of triplicate wells

## CCOC(C)SCC(=O)NC(CCCC(=O)N[C@H]1CSSC[C@@H]2NC(=O)[C@@H]3CSSC[C@@H](C(=O)N[C@@H](Cc4ccc(O)cc4)C(=O)O)NC(=O)CNC(=O)[C@H](C)NC(=O)[C@H](CSSC[C@H](NC1=O)C(=O)N[C@@H](CCC(=O)O)C(=O)N[C@@H](CC(C)C)C(=O)N3)NC(=O)[C@H](C)NC(=O)[C@@H]1CCCN1C(=O)[C@H](CC(N)=O)NC2=O)C(=O)NCC(=O)NCC(=O)O (some centres unmarked) [CA3-ST5-18]
[1]; Ki value (nM), Table IV screening data
  Ki: 0.8 nM
[1]; Ki, competition binding
  Ki: 0.8 nM
[1]; [6]
  Ki: 0.8 nM

## 99mTc-labelled CA1-ST5-18: CA1-ST5-18 peptide-chelate conjugate radiolabelled with 99mTc (CCELCCNPACAGCY; disulfide (positions not given here); not fully specified (N-terminus); ends not checked; also: 99mTc label chelated by CA1, three disulfides, pairing not given here)
[2]; 15 minutes
  Tumour to liver ratio (image): 1.1
[2]; 60 minutes
  Tumour to liver ratio (image): 2
[2]; 120 minutes
  Tumour to liver ratio (image): 4
T84 liver tumours
  tumour:liver ratio based on ROI analysis: 1.5-3.0
[3]
  excreted / cleared via urine: greater than 90%
[4]
  binding, % of added radioactive material: 6%
[5]
  uptake into tumour (FIG. 5): good uptake

## CCOC(C)SCC(=O)NC(CCCC(=O)N[C@@H](C)C(=O)N[C@@H](C)C(=O)N[C@@H](CCC(=O)O)C(=O)N[C@@H](CC(C)C)C(=O)N[C@@H](C)C(=O)N[C@@H](C)C(=O)N[C@@H](CC(N)=O)C(=O)N1CCC[C@H]1C(=O)N[C@@H](C)C(=O)N[C@@H](C)C(=O)N[C@@H](C)C(=O)NCC(=O)N[C@@H](C)C(=O)N[C@@H](Cc1ccc(O)cc1)C(=O)O)C(=O)NCC(=O)NCC(=O)O (some centres unmarked) [CA3-ST5-18(cys-ala), reference compound] (X1-AAELAANPAAAGAY-OH)
[1]; Table IV screening data
  Ki value (nM): none
[1]; competition binding
  Ki: no binding
[1]; competition with [125I]ST1-17, ca. 1 μg rat intestinal membrane, 1 hr, 37° C., means of triplicate wells
  Mean Ki value (nM): none

## C/C(=N/O)C(C)(C)NCCN(CCNC(=O)CCC(=O)N[C@H]1CSSC[C@@H]2NC(=O)[C@@H]3CSSC[C@@H](C(=O)N[C@@H](Cc4ccc(O)cc4)C(=O)O)NC(=O)CNC(=O)[C@H](C)NC(=O)[C@H](CSSC[C@H](NC1=O)C(=O)N[C@@H](CCC(=O)O)C(=O)N[C@@H](CC(C)C)C(=O)N3)NC(=O)[C@H](C)NC(=O)[C@@H]1CCCN1C(=O)[C@H](CC(N)=O)NC2=O)CCNC(C)(C)/C(C)=N\O [CA1-ST5-18]
[1]; [6]
  Ki: 2.8 nM
[1]; Mean Ki value (nM), mock-labelled (subjected to the radiolabelling protocol in the absence of radiometal)
  Ki: 3.5 nM

## C/C(=N/O)C(C)(C)NCCN(CCNC(=O)CCC(=O)NCC(=O)NCC(=O)NCC(=O)NC(CCC(=O)O)C(=O)NC(CCC(=O)O)C(=O)NC(CCC(=O)O)C(=O)N[C@H]1CSSC[C@@H]2NC(=O)[C@@H]3CSSC[C@@H](C(=O)N[C@@H](Cc4ccc(O)cc4)C(=O)O)NC(=O)CNC(=O)[C@H](C)NC(=O)[C@H](CSSC[C@H](NC1=O)C(=O)N[C@@H](CCC(=O)O)C(=O)N[C@@H](CC(C)C)C(=O)N3)NC(=O)[C@H](C)NC(=O)[C@@H]1CCCN1C(=O)[C@H](CC(N)=O)NC2=O)CCNC(C)(C)/C(C)=N\O (some centres unmarked) [CA1-gly3-Dglu3-ST5-18]
[1]; Ki, competition binding
  Ki: 1 nM

## CC(C)C[C@@H]1NC(=O)[C@H](CCC(=O)O)NC(=O)[C@@H]2CSSC[C@@H]3NC(=O)[C@H](C)NC(=O)[C@@H]4CCCN4C(=O)[C@H](CC(N)=O)NC(=O)[C@H](CSSC[C@H](N)C(=O)N2)NC(=O)[C@H](CSSC[C@@H](C(=O)N[C@@H](Cc2ccc(O)cc2)C(=O)O)NC(=O)CNC(=O)[C@H](C)NC3=O)NC1=O [ST5-18]
[1]; Ki, competition binding
  Ki: 0.4 nM
